Active and inactive are the calls of the source. No stated cut-off is given here; in the data, actives have a measured IC50 and inactives only a lower limit.

For the assay, the target named is Envelope glycoprotein gp160 (Human immunodeficiency virus 1, UniProt Q6QLK5). The experiment in a line: inhibitors of HIV fusion peptide binding, primary screen, biochemical, uHTS, fluorescence dequenching (AID 1986).
Envelope glycoprotein gp160, sequence (Q6QLK5 whole entry, the tested form may be a part): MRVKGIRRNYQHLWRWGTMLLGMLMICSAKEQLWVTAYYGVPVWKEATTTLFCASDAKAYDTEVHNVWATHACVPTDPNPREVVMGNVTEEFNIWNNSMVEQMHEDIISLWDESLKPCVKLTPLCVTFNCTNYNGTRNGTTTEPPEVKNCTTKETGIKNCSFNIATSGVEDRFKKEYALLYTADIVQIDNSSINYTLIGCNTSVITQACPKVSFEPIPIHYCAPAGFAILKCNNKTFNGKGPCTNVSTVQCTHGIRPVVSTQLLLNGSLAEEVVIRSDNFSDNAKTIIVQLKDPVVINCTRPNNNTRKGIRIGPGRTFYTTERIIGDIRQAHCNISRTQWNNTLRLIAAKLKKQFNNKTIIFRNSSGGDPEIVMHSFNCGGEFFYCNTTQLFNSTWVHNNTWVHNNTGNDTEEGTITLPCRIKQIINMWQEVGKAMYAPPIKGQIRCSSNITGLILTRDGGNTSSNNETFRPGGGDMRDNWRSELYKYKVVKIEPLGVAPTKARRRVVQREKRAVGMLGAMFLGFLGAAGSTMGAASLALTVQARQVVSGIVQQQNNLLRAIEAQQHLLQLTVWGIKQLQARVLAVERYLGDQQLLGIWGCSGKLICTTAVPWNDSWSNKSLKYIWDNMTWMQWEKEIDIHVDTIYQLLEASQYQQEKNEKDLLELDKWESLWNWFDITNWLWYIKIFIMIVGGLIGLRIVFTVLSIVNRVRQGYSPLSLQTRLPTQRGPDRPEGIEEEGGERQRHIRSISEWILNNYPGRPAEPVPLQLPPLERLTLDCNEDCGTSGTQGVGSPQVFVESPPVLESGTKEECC
Regarding `CCOc1cc(/C=C2\C(=N)N3N=C(S(C)(=O)=O)SC3=NC2=O)ccc1OCCOc1cccc(OC)c1`, the 50% inhibitory concentration (IC50) (in general, the point on the concentration scale where inhibition reaches its midpoint) is 12 µM (active). The result for `COc1cc(/C=C2/SC(=S)N(Cc3ccccc3)C2=O)ccc1OCC(=O)O` reads 17.3 µM (active). The result for `O=[N+]([O-])c1cc([N+](=O)[O-])c2oc(-c3ccccc3)c(Br)c2c1O` reads 8.02 µM (active).

Source of the values: ChEMBL document CHEMBL1201862, “PubChem BioAssay data set” (2004).
